From ChEMBL document CHEMBL5244247, “Natural and synthetic coumarins as antileishmanial agents: A review” (Eur J Med Chem, 2020)
≈ marks a conversion by molar mass, not a printed value.

Assays:
THP-1 = assay: Cytotoxicity against human THP-1 cells assessed as inhibition incubated for 24 hrs by flow cytometry assay; assay type: functional, cell-based; settings: THP-1, 24 h
Leishmania infantum [1] = assay: Antileishmanial activity against axenic amastigote stage of Leishmania infantum infected in human THP-1 cells assessed as inhibition of parasite growth incubated for 24 hrs by flow cytometry assay; assay type: functional, organism-based; settings: THP-1, 24 h
[2] = Selectivity index, ratio of IC50 for cytotoxicity against human THP-1 cells to IC50 for antileishmanial activity against axenic amastigote stage of Leishmania infantum infected in human THP-1 cells; assay type: toxicity, cell-based; settings: read-out: Selectivity Index
Leishmania donovani [3] = assay: Antileishmanial activity against amastigote form of Leishmania donovani; assay type: functional, organism-based
Leishmania donovani [4] = assay: Antileishmanial activity against promastigote form of Leishmania donovani; assay type: functional, organism-based
Leishmania major [5] = assay: Antileishmanial activity against promastigote form of Leishmania major assessed as inhibition at 0.1 uM incubated for 72 hrs by MTT assay relative to control; assay type: functional
Leishmania major [6] = assay: Antileishmanial activity against promastigote form of Leishmania major assessed as inhibition at 100 uM incubated for 72 hrs by MTT assay relative to control; assay type: functional
Leishmania major [7] = assay: Antileishmanial activity against promastigote form of Leishmania major; assay type: functional, organism-based
Leishmania amazonensis [8] = assay: Antileishmanial activity against promastigote form of Leishmania amazonensis assessed as parasite growth inhibition incubated for 72 hrs by regression analysis; assay type: functional, organism-based
Leishmania amazonensis [9] = assay: Antileishmanial activity against intracellular Leishmania amazonensis MHOM/BR/75/Josefa amastigotes infected in BALB/c mouse peritoneal macrophages assessed as parasite growth inhibition incubated for 24 hrs by regression analysis; assay type: functional, organism-based; settings: Peritoneal macrophage
Leishmania major [10] = assay: Antileishmanial activity against promastigote form of Leishmania major assessed as inhibition of parasite growth by Litchfield-Wilcoxon method; assay type: functional, organism-based
Leishmania major [11] = assay: Antiproliferative activity against promastigote form of Leishmania major assessed as lethal dose; assay type: functional; settings: read-out: LD50 (the source's name)
Leishmania major [12] = assay: Antileishmanial activity against promastigote form of Leishmania major assessed as inhibition of parasite growth by MTT colorimetric cell viability assay; assay type: functional, organism-based
Leishmania infantum [13] = assay: Antileishmanial activity against promastigote form of Leishmania infantum; assay type: functional, organism-based
Leishmania braziliensis = assay: Antileishmanial activity against promastigote form of Leishmania braziliensis; assay type: functional, organism-based; settings: Leishmania braziliensis
Leishmania amazonensis [14] = assay: Antileishmanial activity against promastigote form of Leishmania amazonensis; assay type: functional, organism-based
Leishmania panamensis = assay: Antileishmanial activity against intracellular Leishmania panamensis amastigotes infected in human U-937 cells assessed as inhibition at 20 ug/mL incubated for 72 hrs by flow cytometry relative to control; assay type: functional
Leishmania donovani [15] = assay: Antileishmanial activity against amastigote form of Leishmania donovani at 50 uM assessed as inhibition of parasite growth relative to control; assay type: functional
Leishmania amazonensis [16] = assay: Antileishmanial activity against promastigote form of Leishmania amazonensis assessed as parasite growth inhibition incubated for 72 hrs by neubauer counting chamber analysis; assay type: functional, organism-based
Leishmania amazonensis [17] = assay: Antileishmanial activity against amastigote form of Leishmania amazonensis assessed as parasite growth inhibition; assay type: functional, organism-based
Leishmania mexicana = assay: Antileishmanial activity against promastigote form of Leishmania mexicana; assay type: functional, organism-based
[18] = biological target: Acetylcholinesterase (Homo sapiens) (UniProt P22303); assay: Inhibition of AChE (unknown origin) assessed as inhibition zone by Ellman's colorimetric method
Leishmania chagasi = assay: Antileishmanial activity against promastigote form of Leishmania chagasi; assay type: functional, organism-based

Acetylcholinesterase (Homo sapiens), sequence (P22303 whole entry): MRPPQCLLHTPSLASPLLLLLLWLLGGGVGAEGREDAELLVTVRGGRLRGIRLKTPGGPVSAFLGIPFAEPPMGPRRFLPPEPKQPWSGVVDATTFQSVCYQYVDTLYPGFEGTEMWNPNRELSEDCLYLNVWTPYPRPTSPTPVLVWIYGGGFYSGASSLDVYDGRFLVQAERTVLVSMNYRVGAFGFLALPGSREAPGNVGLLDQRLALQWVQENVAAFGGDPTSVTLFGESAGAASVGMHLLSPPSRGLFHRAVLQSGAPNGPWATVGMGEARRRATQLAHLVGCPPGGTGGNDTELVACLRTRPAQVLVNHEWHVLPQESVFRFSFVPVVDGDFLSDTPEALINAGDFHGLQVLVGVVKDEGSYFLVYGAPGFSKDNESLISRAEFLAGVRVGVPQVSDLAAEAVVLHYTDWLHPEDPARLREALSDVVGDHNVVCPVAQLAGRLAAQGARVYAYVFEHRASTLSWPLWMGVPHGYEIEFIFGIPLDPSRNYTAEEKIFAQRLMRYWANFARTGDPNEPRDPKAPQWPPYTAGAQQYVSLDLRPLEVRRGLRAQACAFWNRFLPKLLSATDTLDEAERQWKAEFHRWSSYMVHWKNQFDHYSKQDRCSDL

Compound `COc1cc2oc(=O)cc(C[Se]C#N)c2cc1OC` has an IC50 (THP-1) of 16 µM, an IC50 (Leishmania infantum [1]) of 0.82 µM and a selectivity ratio [2] of 19.4.

`COc1cc(O[C@@H]2O[C@H](CO)[C@@H](O)[C@H](O)[C@H]2O)c2c(-c3ccc(OC)c(OC)c3)cc(=O)oc2c1` gave an IC50 (Leishmania donovani [3]) greater than 90 µM and an IC50 (Leishmania donovani [4]) of 10.2 µM.

Work on `Cc1cccc(-n2c(-c3cc4ccccc4oc3=O)cs/c2=N/NC(=O)c2cc3ccccc3oc2=O)c1C` yielded an inhibition at 0.1 µM (Leishmania major [5]) of 53.9% and an inhibition at 100 µM (Leishmania major [6]) of 70.4%.

With `CC1=CC[C@H]2[C@@H](CC[C@@H](O)C2(C)C)[C@]1(C)COc1ccc2ccc(=O)oc2c1` the IC50 (Leishmania major [7]) was 46.8 µg/mL (≈ 122 µM).

Compound `CCC(C)C(=O)c1c(O)c(CC=C(C)C)c(OC)c2c(-c3ccccc3)cc(=O)oc12` (stereo not given) has an IC50 (Leishmania amazonensis [8]) of 2.4 µM and an IC50 (Leishmania amazonensis [9]) of 34 µM.

`CC(C)=CCC/C(C)=C/COc1ccc2ccc(=O)oc2c1` gave an IC50 (Leishmania major [10]) of 17.1 µM and an LC50 (Leishmania major [11]) of 30 µM.

For `C=C1CC(C/C(C)=C/COc2ccc3ccc(=O)oc3c2O)OC1=O` (stereo not given) [CLAUSLACTONE E], the IC50 (Leishmania major [12]) was 9.8 µM.

In the case of `COc1cc2ccc(=O)oc2cc1O` [SCOPOLETIN], the IC50 (Leishmania infantum [13]) is reported as greater than 50 µM, the IC50 (Leishmania braziliensis) is reported as greater than 50 µM and the IC50 (Leishmania amazonensis [14]) is reported as greater than 50 µM.

In the case of `Cc1cc(=O)oc2cc(OCCCCCOc3cc(Cl)ccc3Oc3ccc(Cl)cc3Cl)ccc12`, the inhibition at 20 µg/mL (Leishmania panamensis) is reported as 50%.

For `CCC(C)C(OC)c1c(OC)c(CC=C(C)C)c(OC)c2c(-c3ccccc3)cc(=O)oc12` (stereo not given), the IC50 (Leishmania amazonensis [8]) was 1.9 µM and the IC50 (Leishmania amazonensis [9]) was 22.2 µM.

For `CC(C)=C1CC[C@H](C)[C@](C)(COc2ccc3ccc(=O)oc3c2)[C@H]1CCC(=O)O` [GALBANIC ACID], the IC50 (Leishmania major [10]) was 165 µM.

In the case of `CCC(C)C(=O)c1c(OC)c(CC=C(C)C)c(OC)c2c(-c3ccccc3)cc(=O)oc12` (stereo not given), the IC50 (Leishmania amazonensis [8]) is reported as 15.1 µM.

In the case of `CCCc1cc(=O)oc2c(C(=O)C(C)CC)c(O)c(CC=C(C)C)c(O)c12` (stereo not given), the IC50 (Leishmania amazonensis [8]) is reported as 30.1 µM.

`CN(C)c1ccc(C(c2c(O)c3ccccc3oc2=O)c2c(O)c3ccccc3oc2=O)cc1` gave an IC50 (Leishmania donovani [4]) of 150 µg/mL.

With `N#CCC1=NN=C(c2cc3ccccc3oc2=O)C(CC(=O)c2ccc(Cl)cc2)O1` (stereo not given) the inhibition at 50 µM (Leishmania donovani [15]) was 95% and the IC50 (Leishmania donovani [3]) was 14.2 µM.

Compound `CCCCCCCCCCCCCCCCOP(=O)([O-])OCC[N+](C)(C)C` [MILTEFOSINE] has an IC50 (Leishmania infantum [13]) of 7.5 µM, an IC50 (THP-1) of 18.5 µM and an IC50 (Leishmania infantum [1]) of 2.84 µM. The IC50 (Leishmania braziliensis) was 10.4 µM, the selectivity ratio [2] was 7 and the IC50 (Leishmania amazonensis [14]) was 9.4 µM.

For `O=c1cc(-c2ccccc2)c2ccc(O[C@@H]3O[C@H](CO)[C@@H](O)[C@H](O)[C@H]3O)cc2o1`, the IC50 (Leishmania amazonensis [16]) was 91.8 µM.

In the case of `COc1cc(O[C@@H]2O[C@H](COC(C)=O)[C@@H](OC(C)=O)[C@H](OC(C)=O)[C@H]2OC(C)=O)c2c(-c3ccc(OC(C)=O)c(OC(C)=O)c3)cc(=O)oc2c1`, the IC50 (Leishmania donovani [3]) is reported as greater than 90 µM and the IC50 (Leishmania donovani [4]) is reported as 12.4 µM.

`N#CCC1=NN=C(c2cc3ccccc3oc2=O)C(CC(=O)c2ccccc2)O1` (stereo not given) gave an inhibition at 50 µM (Leishmania donovani [15]) of 36%.

`COC(=O)C1=C(N)Oc2cc(O)c3c(C)cc(=O)oc3c2C1c1ccc(Br)cc1` (stereo not given) gave an IC50 (Leishmania amazonensis [17]) of 33.2 µM.

Work on `COC(=O)C1=C(N)Oc2cc(O)c3c(C)cc(=O)oc3c2C1c1ccc(Cl)cc1` (stereo not given) yielded an IC50 (Leishmania amazonensis [17]) of 38.4 µM.

With `CC(=O)OC[C@H]1O[C@@H](Oc2ccc3c(-c4ccccc4)cc(=O)oc3c2)[C@H](OC(C)=O)[C@@H](OC(C)=O)[C@@H]1OC(C)=O` the IC50 (Leishmania amazonensis [17]) was 34.9 µM and the IC50 (Leishmania amazonensis [16]) was 10 µM.

`C=C1CC(CC(C)(O)C(O)COc2ccc3ccc(=O)oc3c2O)OC1=O` (stereo not given) showed an IC50 (Leishmania major [12]) of 12.1 µM.

With `COc1cc2ccc(=O)oc2cc1OC` [SCOPARONE] the EC50 (Leishmania mexicana) was 9.11 µg/mL (≈ 44.2 µM), the inhibition zone (IZ) [18] was 8 mm and the IC50 (Leishmania infantum [13]) was greater than 50 µM. It also gave an IC50 (Leishmania braziliensis) greater than 50 µM, an EC50 (Leishmania chagasi) of 21.4 µg/mL (≈ 104 µM) and an IC50 (Leishmania amazonensis [14]) greater than 50 µM. For the same compound, the EC50 (Leishmania donovani [4]) was 27.5 µg/mL (≈ 133 µM) and the EC50 (Leishmania major [7]) was 14.4 µg/mL (≈ 69.7 µM).

`CNC(=O)Oc1ccc2c(c1)[C@]1(C)CCN(C)[C@@H]1N2C` showed an inhibition zone (IZ) [18] of 9 mm.

For `CC1(O)CC(CC(C)(O)C(O)COc2ccc3ccc(=O)oc3c2O)OC1=O` (stereo not given), the IC50 (Leishmania major [12]) was greater than 100 µM.
